# Reference: ChEMBL document CHEMBL1909046, “DrugMatrix in vitro pharmacology data”
# Legend:
# [1] = biological target: Sodium-dependent noradrenaline transporter (Homo sapiens, UniProt P23975); test: DRUGMATRIX: Norepinephrine Transporter radioligand binding (ligand: [125I] RTI-55); format: cell membranes, MDCK, Membrane; settings: Not Active = under 50% inhibition at 10 µM
# Cytochrome P450 1A2 = biological target: T1, Cytochrome P450 1A2 (Homo sapiens, UniProt P05177); settings: bti-tn-5b1-4; note: in other assays of this panel Not Active means under 50% inhibition at 10 µM
# T1 sequence (P05177 whole entry): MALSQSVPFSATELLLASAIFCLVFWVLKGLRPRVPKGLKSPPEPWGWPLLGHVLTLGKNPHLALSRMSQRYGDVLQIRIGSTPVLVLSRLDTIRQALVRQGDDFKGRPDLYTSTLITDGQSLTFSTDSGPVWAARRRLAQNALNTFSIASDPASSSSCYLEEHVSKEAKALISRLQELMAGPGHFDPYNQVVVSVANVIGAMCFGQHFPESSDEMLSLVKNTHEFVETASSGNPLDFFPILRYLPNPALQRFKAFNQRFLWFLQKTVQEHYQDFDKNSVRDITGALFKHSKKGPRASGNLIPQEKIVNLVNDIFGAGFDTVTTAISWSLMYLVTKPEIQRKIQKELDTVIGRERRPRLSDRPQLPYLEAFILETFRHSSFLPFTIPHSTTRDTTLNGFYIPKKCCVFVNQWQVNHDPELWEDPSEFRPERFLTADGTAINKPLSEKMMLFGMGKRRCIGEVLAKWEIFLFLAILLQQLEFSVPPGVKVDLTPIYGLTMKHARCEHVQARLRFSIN
# Cytochrome P450 2D6 = Cytochrome P450 2D6 (Homo sapiens, UniProt P10635); settings: bti-tn-5b1-4; note: in other assays of this panel Not Active means under 50% inhibition at 10 µM
# Chain of Cytochrome P450 2D6 (P10635 whole entry): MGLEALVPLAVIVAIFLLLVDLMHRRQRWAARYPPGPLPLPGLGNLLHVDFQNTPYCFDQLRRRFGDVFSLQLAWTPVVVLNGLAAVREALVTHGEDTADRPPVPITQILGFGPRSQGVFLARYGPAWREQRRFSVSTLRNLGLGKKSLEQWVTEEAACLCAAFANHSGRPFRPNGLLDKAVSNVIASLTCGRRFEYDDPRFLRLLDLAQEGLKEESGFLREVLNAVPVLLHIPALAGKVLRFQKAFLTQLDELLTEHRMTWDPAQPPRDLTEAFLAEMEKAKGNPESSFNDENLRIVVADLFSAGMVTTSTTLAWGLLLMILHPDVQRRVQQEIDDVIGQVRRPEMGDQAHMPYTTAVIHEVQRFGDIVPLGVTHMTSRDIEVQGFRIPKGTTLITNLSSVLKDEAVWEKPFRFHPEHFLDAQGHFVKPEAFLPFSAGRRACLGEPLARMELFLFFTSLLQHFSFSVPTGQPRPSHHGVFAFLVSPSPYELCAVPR
# Estrogen receptor = biological target: T2, Estrogen receptor (Homo sapiens, UniProt P03372); settings: sf9; note: in other assays of this panel Not Active means under 50% inhibition at 10 µM
# T2 sequence (P03372 whole entry): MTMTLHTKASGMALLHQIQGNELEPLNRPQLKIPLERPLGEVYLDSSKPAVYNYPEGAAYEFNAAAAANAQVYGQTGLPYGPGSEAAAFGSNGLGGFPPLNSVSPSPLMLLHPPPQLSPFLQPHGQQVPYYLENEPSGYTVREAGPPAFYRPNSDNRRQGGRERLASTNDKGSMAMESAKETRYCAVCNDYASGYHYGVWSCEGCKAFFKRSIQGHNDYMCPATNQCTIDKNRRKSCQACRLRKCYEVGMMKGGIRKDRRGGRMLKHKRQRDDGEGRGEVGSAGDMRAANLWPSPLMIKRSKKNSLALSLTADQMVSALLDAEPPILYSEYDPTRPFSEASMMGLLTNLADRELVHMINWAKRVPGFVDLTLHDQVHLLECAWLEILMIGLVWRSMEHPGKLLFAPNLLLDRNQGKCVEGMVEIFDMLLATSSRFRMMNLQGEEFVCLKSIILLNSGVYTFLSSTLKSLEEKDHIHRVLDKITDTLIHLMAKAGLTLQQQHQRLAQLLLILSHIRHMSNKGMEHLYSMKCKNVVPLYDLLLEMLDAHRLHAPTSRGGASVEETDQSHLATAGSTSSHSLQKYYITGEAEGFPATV
# Estrogen receptor beta = Estrogen receptor beta (Homo sapiens, UniProt Q92731); settings: sf9; note: in other assays of this panel Not Active means under 50% inhibition at 10 µM
# Chain of Estrogen receptor beta (Q92731 whole entry): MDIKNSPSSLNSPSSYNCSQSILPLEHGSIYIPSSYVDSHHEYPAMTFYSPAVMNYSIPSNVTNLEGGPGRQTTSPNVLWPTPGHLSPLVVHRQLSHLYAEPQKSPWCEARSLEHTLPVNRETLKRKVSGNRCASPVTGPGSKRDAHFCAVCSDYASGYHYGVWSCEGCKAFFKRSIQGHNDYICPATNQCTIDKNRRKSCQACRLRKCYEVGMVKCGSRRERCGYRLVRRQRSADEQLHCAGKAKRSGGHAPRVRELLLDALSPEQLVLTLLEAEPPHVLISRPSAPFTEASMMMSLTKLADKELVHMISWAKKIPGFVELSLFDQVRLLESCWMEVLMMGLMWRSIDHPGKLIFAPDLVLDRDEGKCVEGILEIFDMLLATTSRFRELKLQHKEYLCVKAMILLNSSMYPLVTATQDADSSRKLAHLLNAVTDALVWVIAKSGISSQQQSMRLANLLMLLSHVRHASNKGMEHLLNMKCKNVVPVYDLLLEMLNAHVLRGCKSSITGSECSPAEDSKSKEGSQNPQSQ
# [2] = biological target: Voltage-gated inwardly rectifying potassium channel KCNH2 (Homo sapiens, UniProt Q12809); settings: hek293; note: in other assays of this panel Not Active means under 50% inhibition at 10 µM
# Chain of Voltage-gated inwardly rectifying potassium channel KCNH2 (Q12809 whole entry): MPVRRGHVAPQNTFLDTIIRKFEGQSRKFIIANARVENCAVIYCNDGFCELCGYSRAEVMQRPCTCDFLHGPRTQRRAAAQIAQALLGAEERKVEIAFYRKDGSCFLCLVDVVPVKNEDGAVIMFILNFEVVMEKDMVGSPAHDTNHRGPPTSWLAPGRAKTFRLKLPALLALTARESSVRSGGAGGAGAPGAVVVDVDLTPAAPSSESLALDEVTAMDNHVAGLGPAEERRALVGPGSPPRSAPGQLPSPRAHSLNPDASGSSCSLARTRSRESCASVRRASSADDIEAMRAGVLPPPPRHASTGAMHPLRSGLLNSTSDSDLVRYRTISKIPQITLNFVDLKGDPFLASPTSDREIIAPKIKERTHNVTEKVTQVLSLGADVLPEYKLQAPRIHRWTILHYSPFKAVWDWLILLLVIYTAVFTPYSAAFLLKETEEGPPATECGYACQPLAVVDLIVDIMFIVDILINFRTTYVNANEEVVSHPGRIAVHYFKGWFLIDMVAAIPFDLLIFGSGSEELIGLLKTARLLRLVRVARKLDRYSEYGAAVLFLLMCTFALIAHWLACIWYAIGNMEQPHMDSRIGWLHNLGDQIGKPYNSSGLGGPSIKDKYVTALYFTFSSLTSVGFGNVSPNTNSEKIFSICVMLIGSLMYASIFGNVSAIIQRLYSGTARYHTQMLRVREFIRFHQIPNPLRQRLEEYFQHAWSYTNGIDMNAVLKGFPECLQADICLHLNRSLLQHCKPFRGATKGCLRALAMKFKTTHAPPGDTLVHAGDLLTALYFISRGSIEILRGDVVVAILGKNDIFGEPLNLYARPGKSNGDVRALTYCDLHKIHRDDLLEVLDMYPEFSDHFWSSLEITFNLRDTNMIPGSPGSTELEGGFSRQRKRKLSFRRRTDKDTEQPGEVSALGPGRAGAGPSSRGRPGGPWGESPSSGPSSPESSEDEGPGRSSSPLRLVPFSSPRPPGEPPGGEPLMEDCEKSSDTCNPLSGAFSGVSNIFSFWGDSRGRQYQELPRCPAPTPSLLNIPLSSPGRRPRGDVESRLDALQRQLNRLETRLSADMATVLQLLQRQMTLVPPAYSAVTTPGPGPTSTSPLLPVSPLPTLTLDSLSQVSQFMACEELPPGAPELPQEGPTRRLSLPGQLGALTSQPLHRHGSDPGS
# Cytochrome P450 2C19 = Cytochrome P450 2C19 (Homo sapiens, UniProt P33261); settings: bti-tn-5b1-4; note: in other assays of this panel Not Active means under 50% inhibition at 10 µM
# Chain of Cytochrome P450 2C19 (P33261 whole entry): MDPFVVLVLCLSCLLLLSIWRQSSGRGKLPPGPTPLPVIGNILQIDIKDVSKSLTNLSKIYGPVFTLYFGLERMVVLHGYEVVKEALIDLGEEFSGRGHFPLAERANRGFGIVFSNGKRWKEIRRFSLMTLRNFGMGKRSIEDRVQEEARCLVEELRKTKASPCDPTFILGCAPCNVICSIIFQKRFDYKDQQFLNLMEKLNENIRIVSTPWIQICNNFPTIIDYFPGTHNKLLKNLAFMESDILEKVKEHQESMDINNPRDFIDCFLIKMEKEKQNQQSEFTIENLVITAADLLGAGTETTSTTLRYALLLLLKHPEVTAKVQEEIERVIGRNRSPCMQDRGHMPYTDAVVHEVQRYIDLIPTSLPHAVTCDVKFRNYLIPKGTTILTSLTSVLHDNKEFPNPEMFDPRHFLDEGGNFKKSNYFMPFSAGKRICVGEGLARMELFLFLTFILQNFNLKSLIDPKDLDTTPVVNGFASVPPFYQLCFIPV
# Cytochrome P450 2C9 = Cytochrome P450 2C9 (Homo sapiens, UniProt P11712); settings: bti-tn-5b1-4; note: in other assays of this panel Not Active means under 50% inhibition at 10 µM
# Chain of Cytochrome P450 2C9 (P11712 whole entry): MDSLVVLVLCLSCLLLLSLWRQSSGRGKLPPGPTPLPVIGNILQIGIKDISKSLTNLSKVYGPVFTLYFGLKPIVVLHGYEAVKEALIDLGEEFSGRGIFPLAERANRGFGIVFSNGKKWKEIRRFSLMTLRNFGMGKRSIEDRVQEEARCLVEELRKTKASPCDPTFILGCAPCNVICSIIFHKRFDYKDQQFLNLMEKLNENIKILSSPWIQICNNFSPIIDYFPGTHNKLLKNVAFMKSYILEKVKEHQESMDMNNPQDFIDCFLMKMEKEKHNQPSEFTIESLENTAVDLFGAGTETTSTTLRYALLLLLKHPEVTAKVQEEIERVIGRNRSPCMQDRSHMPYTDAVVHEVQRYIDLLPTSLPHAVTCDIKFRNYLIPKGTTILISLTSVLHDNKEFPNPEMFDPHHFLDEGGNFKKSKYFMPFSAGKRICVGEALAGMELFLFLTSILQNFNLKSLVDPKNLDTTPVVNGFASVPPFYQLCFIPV
# Cytochrome P450 3A4 = Cytochrome P450 3A4 (Homo sapiens, UniProt P08684); settings: bti-tn-5b1-4; note: in other assays of this panel Not Active means under 50% inhibition at 10 µM
# Chain of Cytochrome P450 3A4 (P08684 whole entry): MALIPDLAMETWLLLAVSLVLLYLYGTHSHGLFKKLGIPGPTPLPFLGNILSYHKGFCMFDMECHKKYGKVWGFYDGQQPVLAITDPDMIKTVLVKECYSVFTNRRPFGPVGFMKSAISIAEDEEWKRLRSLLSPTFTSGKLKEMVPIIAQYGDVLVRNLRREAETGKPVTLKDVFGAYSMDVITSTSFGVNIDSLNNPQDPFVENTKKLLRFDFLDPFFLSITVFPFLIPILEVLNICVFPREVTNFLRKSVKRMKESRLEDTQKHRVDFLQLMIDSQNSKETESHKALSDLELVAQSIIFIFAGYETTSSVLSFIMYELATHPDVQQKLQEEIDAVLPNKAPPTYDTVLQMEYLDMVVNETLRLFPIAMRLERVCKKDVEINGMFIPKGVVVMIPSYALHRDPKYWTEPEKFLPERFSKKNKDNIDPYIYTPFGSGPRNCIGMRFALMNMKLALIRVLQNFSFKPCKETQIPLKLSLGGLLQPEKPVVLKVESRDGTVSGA
# Glucocorticoid receptor = biological target: T3, Glucocorticoid receptor (Homo sapiens, UniProt P04150); settings: hela s3; note: in other assays of this panel Not Active means under 50% inhibition at 10 µM
# T3 sequence (P04150 whole entry): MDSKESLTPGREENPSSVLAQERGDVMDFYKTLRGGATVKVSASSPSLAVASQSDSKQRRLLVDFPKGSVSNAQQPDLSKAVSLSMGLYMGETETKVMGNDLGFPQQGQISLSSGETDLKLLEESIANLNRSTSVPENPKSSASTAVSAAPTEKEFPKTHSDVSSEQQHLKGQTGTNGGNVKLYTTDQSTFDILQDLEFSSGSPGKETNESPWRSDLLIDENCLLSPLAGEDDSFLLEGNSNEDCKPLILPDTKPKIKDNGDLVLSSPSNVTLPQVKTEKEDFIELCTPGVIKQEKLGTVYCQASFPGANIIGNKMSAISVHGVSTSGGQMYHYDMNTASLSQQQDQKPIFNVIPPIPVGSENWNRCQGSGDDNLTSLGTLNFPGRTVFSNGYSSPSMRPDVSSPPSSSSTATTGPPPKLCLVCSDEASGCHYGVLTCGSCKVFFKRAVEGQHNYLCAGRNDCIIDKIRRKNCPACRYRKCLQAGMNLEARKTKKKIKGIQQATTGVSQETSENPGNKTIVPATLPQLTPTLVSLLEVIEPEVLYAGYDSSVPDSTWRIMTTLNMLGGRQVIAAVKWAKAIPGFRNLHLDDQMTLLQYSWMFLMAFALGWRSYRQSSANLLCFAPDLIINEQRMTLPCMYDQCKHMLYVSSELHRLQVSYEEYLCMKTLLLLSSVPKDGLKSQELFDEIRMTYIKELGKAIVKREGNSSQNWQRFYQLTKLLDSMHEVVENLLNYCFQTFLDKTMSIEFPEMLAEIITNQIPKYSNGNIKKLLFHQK
# Chain of Sodium-dependent noradrenaline transporter (P23975 whole entry): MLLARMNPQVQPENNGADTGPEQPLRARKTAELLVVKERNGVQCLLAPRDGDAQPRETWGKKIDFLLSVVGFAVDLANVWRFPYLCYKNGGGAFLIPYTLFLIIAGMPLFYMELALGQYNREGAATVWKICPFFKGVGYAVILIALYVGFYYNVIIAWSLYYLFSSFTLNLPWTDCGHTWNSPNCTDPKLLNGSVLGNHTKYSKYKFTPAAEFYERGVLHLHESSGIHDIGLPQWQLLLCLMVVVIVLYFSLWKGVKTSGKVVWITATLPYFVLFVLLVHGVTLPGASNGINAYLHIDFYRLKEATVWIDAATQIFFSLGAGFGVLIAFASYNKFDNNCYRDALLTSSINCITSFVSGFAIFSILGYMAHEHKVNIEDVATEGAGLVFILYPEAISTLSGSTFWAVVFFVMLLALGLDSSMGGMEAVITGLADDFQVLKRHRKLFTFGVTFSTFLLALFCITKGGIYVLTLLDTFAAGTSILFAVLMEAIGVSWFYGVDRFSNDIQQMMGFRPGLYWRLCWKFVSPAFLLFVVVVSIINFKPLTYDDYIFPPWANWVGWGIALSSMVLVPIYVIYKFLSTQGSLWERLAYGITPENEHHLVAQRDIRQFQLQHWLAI
Compound,IC50 ([1]; read-out: IC50) [µM],Ki ([1]; read-out: Ki) [µM],IC50 (Cytochrome P450 1A2),Ki (Cytochrome P450 1A2),IC50 (Cytochrome P450 2D6),Ki (Cytochrome P450 2D6),IC50 (Estrogen receptor),IC50 (Estrogen receptor beta),IC50 [2],Ki [2],IC50 ([1]; mdck),IC50 (Cytochrome P450 2C19),Ki (Cytochrome P450 2C19),IC50 (Cytochrome P450 2C9),Ki (Cytochrome P450 2C9),IC50 (Cytochrome P450 3A4),Ki (Cytochrome P450 3A4),IC50 (Glucocorticoid receptor)
Clc1ccccc1C(c1ccccc1)(c1ccccc1)n1ccnc1 [CLOTRIMAZOLE],7.94,7.87,Not Active,Not Active,Not Active,Not Active,Not Active,Not Active,Not Active,Not Active,,,,,,,,
CC1=C(/C=C/C(C)=C/C=C/C(C)=C\C(=O)O)C(C)(C)CCC1 [ISOTRETINOIN],,,Not Active,Not Active,Not Active,Not Active,Not Active,,,,Not Active,Not Active,Not Active,Not Active,Not Active,Not Active,Not Active,Not Active
COS(C)(=O)=O [METHANESULFONIC ACID METHYL ESTER],,,Not Active,Not Active,Not Active,Not Active,Not Active,,Not Active,Not Active,Not Active,Not Active,Not Active,Not Active,Not Active,Not Active,Not Active,Not Active
C[C@](N)(Cc1ccc(O)cc1)C(=O)O [METYROSINE],,,Not Active,Not Active,Not Active,Not Active,Not Active,,Not Active,Not Active,Not Active,Not Active,Not Active,Not Active,Not Active,Not Active,Not Active,Not Active
CC(=O)[C@H]1CC[C@H]2[C@@H]3CCC4=CC(=O)CC[C@]4(C)[C@H]3CC[C@]12C [PROGESTERONE],,,Not Active,Not Active,Not Active,Not Active,Not Active,Not Active,,,Not Active,Not Active,Not Active,Not Active,Not Active,Not Active,Not Active,
CC[C@H]1OC(=O)[C@H](C)[C@@H](O[C@H]2C[C@@](C)(OC)[C@@H](O)[C@H](C)O2)[C@H](C)[C@@H](O[C@@H]2O[C@H](C)C[C@H](N(C)C)[C@H]2O)[C@](C)(O)C[C@@H](C)/C(=N\OCOCCOC)[C@H](C)[C@@H](O)[C@]1(C)O [ROXITHROMYCIN],,,Not Active,Not Active,Not Active,Not Active,Not Active,,Not Active,Not Active,Not Active,Not Active,Not Active,Not Active,Not Active,Not Active,Not Active,Not Active
CC(=O)S[C@@H]1CC2=CC(=O)CC[C@]2(C)[C@H]2CC[C@@]3(C)[C@@H](CC[C@@]34CCC(=O)O4)[C@H]12 [SPIRONOLACTONE],,,,,,,Not Active,Not Active,Not Active,Not Active,Not Active,,,,,Not Active,Not Active,
CSc1ccc2c(c1)N(CCC1CCCCN1C)c1ccccc1S2 (stereo unspecified) [THIORIDAZINE],,,,,,,Not Active,,,,,,,Not Active,Not Active,Not Active,Not Active,Not Active
Cc1ccc(C(=O)C(C)CN2CCCCC2)cc1 (stereo unspecified) [TOLPERISONE],,,Not Active,Not Active,Not Active,Not Active,Not Active,Not Active,Not Active,Not Active,Not Active,Not Active,Not Active,Not Active,Not Active,Not Active,Not Active,
COc1cccc(C2(O)CCCCC2CN(C)C)c1 (stereo unspecified) [TRAMADOL],,,Not Active,Not Active,Not Active,Not Active,Not Active,,Not Active,Not Active,,Not Active,Not Active,Not Active,Not Active,,,Not Active
NC(CO)(CO)CO [TROMETHAMINE],,,Not Active,Not Active,Not Active,Not Active,Not Active,,Not Active,Not Active,Not Active,Not Active,Not Active,Not Active,Not Active,Not Active,Not Active,Not Active
COc1cc(C(=O)NC2CCCNC2)cc(OC)c1OC (stereo unspecified) [TROXIPIDE],,,Not Active,Not Active,Not Active,Not Active,,Not Active,Not Active,Not Active,Not Active,Not Active,Not Active,Not Active,Not Active,Not Active,Not Active,Not Active
COC(=O)[C@@H]1[C@H]2C[C@H]3c4[nH]c5ccccc5c4CCN3C[C@@H]2CC[C@@H]1O [YOHIMBINE],,,,,,,Not Active,Not Active,Not Active,Not Active,Not Active,,,,,,,
